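Compound exposure: 48 hours, 5 concentrations, 96-well plates. GI50 marks 50% less growth. TGI denotes the concentration required for complete inhibition of growth.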

Among the test systems are 786-0 renal; A549 NSCLC; CAKI-1 renal; HL-60(TB) leukemia; IGROV1 ovarian; OVCAR-5 ovarian; PC-3 prostate; SK-OV-3 ovarian; SR leukemia; SF-295 CNS.
What all share (experiment): NCI tumour cell line growth inhibition, 48 h

On to `N=C(N)c1ccc(-c2ccc(-c3ccco3)o2)cc1`, for which the GI50 with 786-0 renal is 3.93 µM; in the assay on A549 NSCLC, 4.76 µM; in the assay on CAKI-1 renal, 3.94 µM; in the assay with HL-60(TB) leukemia, 2.19 µM; with IGROV1 ovarian, 4.38 µM; in the assay with OVCAR-5 ovarian, 4.98 µM. Moreover, the GI50 with PC-3 prostate is 4.05 µM; in the assay with SK-OV-3 ovarian, 9.21 µM; in the assay on SR leukemia, 3.17 µM. Further, the TGI in the assay with 786-0 renal worked out at 17.1 µM; in the assay on A549 NSCLC it was 18.9 µM; with CAKI-1 renal, 16.6 µM; in the assay on HL-60(TB) leukemia, 5.53 µM; in the assay with IGROV1 ovarian, 16.7 µM; in the assay on OVCAR-5 ovarian, 18.8 µM. Further, the TGI with PC-3 prostate worked out at 17 µM; in the assay with SK-OV-3 ovarian, 21.2 µM; in the assay on SR leukemia, 10.7 µM.
Regarding `CC(=O)O/N=C1\C=Cc2c(no[n+]2[O-])C1=O`, the TGI with 786-0 renal is 33.5 µM; in the assay on A549 NSCLC, 31.1 µM; with CAKI-1 renal, 35.8 µM; in the assay with IGROV1 ovarian it was 30.3 µM; in the assay with OVCAR-5 ovarian it was 32.7 µM; in the assay on PC-3 prostate, 32.3 µM. Also, the figures for the TGI in the assay with SF-295 CNS and in the assay on SR leukemia were more than 100 µM and 48.5 µM, respectively.
On to `O=C(CCCCCn1c2ccccc2c2c3c(c4c5ccccc5[nH]c4c21)C(=O)N(O)C3=O)N1CCOCC1`, for which the GI50 with 786-0 renal was 1.99 µM; in the assay on A549 NSCLC, 4.22 µM; in the assay on CAKI-1 renal it was 2.13 µM; with HL-60(TB) leukemia it was 2.01 µM; in the assay with IGROV1 ovarian, 2.16 µM; with OVCAR-5 ovarian, 3.49 µM. The GI50 was 2.28 µM with PC-3 prostate, 2.27 µM in the assay on SK-OV-3 ovarian and 1.12 µM in the assay with SR leukemia. Also, the TGI is 4.91 µM in the assay on 786-0 renal; 24 µM with A549 NSCLC; 4.81 µM with CAKI-1 renal; 5.45 µM in the assay on HL-60(TB) leukemia; 4.92 µM with IGROV1 ovarian; more than 100 µM in the assay with OVCAR-5 ovarian. For the same molecule, the values for the TGI in the assay on PC-3 prostate, in the assay on SK-OV-3 ovarian and in the assay on SR leukemia were 6.22 µM, 5.81 µM and 5.45 µM, respectively.
For `COC1=C(NC(C)=O)C(=O)c2nc3n(c2C1=O)CCC3`, the TGI is 36.4 µM with 786-0 renal; more than 69.9 µM in the assay with A549 NSCLC; 32.8 µM in the assay with CAKI-1 renal; more than 30.4 µM in the assay on HL-60(TB) leukemia; 35.6 µM with IGROV1 ovarian; 34.6 µM in the assay with OVCAR-5 ovarian. In addition, the TGI in the assay with PC-3 prostate is more than 100 µM; in the assay with SF-295 CNS it was 40.3 µM; with SK-OV-3 ovarian, more than 100 µM; in the assay with SR leukemia, more than 86.2 µM.
As for `COc1cccc(-n2cnc3c(N/N=C/c4ccncc4)ncnc32)c1`, the GI50 in the assay with 786-0 renal was 19.5 µM; in the assay on A549 NSCLC, 17.6 µM; with CAKI-1 renal it was 7.34 µM; in the assay on HL-60(TB) leukemia it was more than 25 µM; with IGROV1 ovarian, 8.65 µM; in the assay on OVCAR-5 ovarian, more than 25 µM. In addition, the GI50 with PC-3 prostate was more than 25 µM; in the assay on SF-295 CNS it was more than 25 µM; in the assay with SK-OV-3 ovarian, 7.88 µM; with SR leukemia it was 12.3 µM. For the same molecule, the TGI in the assay with 786-0 renal, with A549 NSCLC, with CAKI-1 renal, in the assay with HL-60(TB) leukemia, in the assay on IGROV1 ovarian and with OVCAR-5 ovarian was more than 25 µM in each case. In addition, the TGI with PC-3 prostate is more than 25 µM; in the assay on SF-295 CNS, more than 25 µM; with SK-OV-3 ovarian it was more than 23.7 µM; in the assay with SR leukemia it was more than 25 µM.
Consider `O=C(O)c1cc(/C=C/c2ccc(O)c(O)c2)ccc1O`, for which the TGI in the assay with 786-0 renal, with A549 NSCLC, in the assay on CAKI-1 renal, in the assay with HL-60(TB) leukemia, in the assay on IGROV1 ovarian and in the assay on OVCAR-5 ovarian was more than 100 µM in each case. The TGI in the assay with PC-3 prostate, in the assay on SF-295 CNS, in the assay with SK-OV-3 ovarian and in the assay on SR leukemia was more than 100 µM in each case.
With `CC(=O)c1c[nH]c2ccc(-c3ccnc(Nc4ccc(NC(=O)c5cccc(F)c5)c(CN5CCOCC5)c4)n3)cc12`, the GI50 in the assay with 786-0 renal is 0.157 µM; with A549 NSCLC it was 0.185 µM; in the assay on CAKI-1 renal it was 0.0526 µM; in the assay on HL-60(TB) leukemia it was 0.242 µM; in the assay with IGROV1 ovarian, 0.151 µM; in the assay on OVCAR-5 ovarian, 0.129 µM. For the same molecule, the GI50 in the assay with PC-3 prostate is 0.224 µM; in the assay on SF-295 CNS, 0.249 µM; in the assay on SK-OV-3 ovarian, 0.562 µM; in the assay on SR leukemia, 0.0363 µM. Besides, the TGI with 786-0 renal is more than 26.2 µM; with A549 NSCLC, more than 35.5 µM; in the assay with CAKI-1 renal, 5.02 µM; in the assay with HL-60(TB) leukemia it was 0.928 µM; in the assay on IGROV1 ovarian, 1.69 µM; in the assay on OVCAR-5 ovarian, 1.06 µM. Also, the TGI is 2.96 µM in the assay with PC-3 prostate, 1.75 µM in the assay on SF-295 CNS, more than 100 µM with SK-OV-3 ovarian and more than 100 µM in the assay on SR leukemia.
Consider `COc1cc2c(cc1OC)[C@@H]1[C@H](C2=O)c2ccc([N+](=O)[O-])cc2C(=O)N1CCCBr`, for which the GI50 in the assay on 786-0 renal was less than 0.0489 µM; in the assay with CAKI-1 renal, less than 0.01 µM; in the assay on IGROV1 ovarian, less than 0.01 µM; in the assay with OVCAR-5 ovarian, 1.64 µM; in the assay on PC-3 prostate, 1.19 µM; in the assay on SK-OV-3 ovarian, 1.32 µM. In addition, the GI50 in the assay on SR leukemia is less than 0.01 µM. In addition, the TGI with 786-0 renal is 0.285 µM; in the assay on A549 NSCLC, 4.02 µM; with IGROV1 ovarian, 1.93 µM; with OVCAR-5 ovarian, more than 100 µM; in the assay with PC-3 prostate it was more than 70.4 µM; in the assay with SK-OV-3 ovarian, more than 100 µM. The TGI in the assay with SR leukemia stood at 0.311 µM.
Turning to `CN1CCN(c2nc(NCCNc3ccnc4cc(Cl)ccc34)c3ccccc3n2)CC1`, the GI50 is 2.33 µM in the assay with 786-0 renal; 1.44 µM in the assay on A549 NSCLC; 1.74 µM in the assay with HL-60(TB) leukemia; 2.51 µM in the assay on IGROV1 ovarian; 3.35 µM with OVCAR-5 ovarian; 2.07 µM in the assay with PC-3 prostate. Further, the figures for the GI50 with SF-295 CNS, in the assay on SK-OV-3 ovarian and in the assay with SR leukemia were 1.79 µM, 3.18 µM and 1.3 µM, respectively. Further, the TGI came out at 10 µM with 786-0 renal; 5.97 µM with A549 NSCLC; 3.5 µM with HL-60(TB) leukemia; 7.94 µM with IGROV1 ovarian; 13.3 µM in the assay on OVCAR-5 ovarian; 14.3 µM in the assay on PC-3 prostate. In addition, the values for the TGI in the assay on SF-295 CNS, in the assay on SK-OV-3 ovarian and in the assay with SR leukemia were 3.45 µM, 11.7 µM and 3.67 µM, respectively.

Values taken from PubChem BioAssay (NCI).
